SMILES strings stand for the structures. Where a name gives a salt, the structure may show the parent alone.

For orientation: inhibition means the change of the read-out against control, counted positive when it falls.

One assay addresses T1, human 5-HT1A receptor (Homo sapiens, UniProt P08908).
T1 construct: purchased Packard Bioscience; host or cells: CHO cells (membrane preparation)
T1 sequence (P08908 1-422): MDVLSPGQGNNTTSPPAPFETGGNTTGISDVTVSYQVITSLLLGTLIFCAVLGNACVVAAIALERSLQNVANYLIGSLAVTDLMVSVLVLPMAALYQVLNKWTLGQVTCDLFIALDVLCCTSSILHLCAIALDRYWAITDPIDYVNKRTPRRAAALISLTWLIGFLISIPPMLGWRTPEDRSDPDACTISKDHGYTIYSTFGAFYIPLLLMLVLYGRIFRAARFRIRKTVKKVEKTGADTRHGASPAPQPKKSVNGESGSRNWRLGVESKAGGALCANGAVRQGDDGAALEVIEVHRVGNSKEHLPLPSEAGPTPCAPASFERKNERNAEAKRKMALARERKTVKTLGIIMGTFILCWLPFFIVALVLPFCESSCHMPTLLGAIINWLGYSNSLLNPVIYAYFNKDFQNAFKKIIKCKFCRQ
In words: Affinity measurement of the compounds to human 5-HT1A receptor (in vitro), [3H]8-OH-DPAT binding. Conditions: test compound 100 nmols/L; [3H]8-OH-DPAT 0.25 nmols/L; CHO cell membrane expressing human 5-HT1A receptor; read-out: Percent Inhibition (%) on Each Receptor's Binding at 10^−7M, 5-HT1A. As for the experimental part:
(1) Affinity Measurement of the Compounds to Human 5-HT1A Receptor (in Vitro)
CHO cell membrane sample in which human 5-HT1A receptor was expressed (purchased from Packard Bioscience) 0.25 mL (about 50 units) was added to 24.75 mL of incubation buffer solution A (an aqueous solution of a mixture of 50 mmols/L of Tris-hydrochloric acid, 10 mmols/L of magnesium sulfate, 0.5 mmols/L of EDTA and 0.1% ascorbic acid, whose pH was adjusted to 7.4 at 27° C. with 1N-aqueous sodium hydroxide solution), and labeled as membrane sample suspension A. Separately, each test compound was made into 270 μmols/L DMSO solution and diluted to a prescribed concentration with the incubation buffer solution A, to provide a compound solution.
A piece of polypropylene tube was charged with 20 μL of [^3H]8-OH-DPAT (8-hydroxy-2-(di-n-propylamino)tetralin; purchased from Daiichi Pure Chemicals Co., Ltd.) (The concentration of the [^3H]8-OH-DPAT had been advancedly adjusted to render its concentration in the reaction mixture to 0.25 nmols/L) and 20 μL of one of the compound solutions. Further 500 μL of the membrane sample suspension A was added into the tube, followed by 60 minutes' incubation at 27° C. The reaction was terminated by rapid filtration of the reaction mixture through GF/C filter which had been advancedly immersed in a solution formed by adding to the incubation buffer solution A polyethyleneimine to a concentration of 0.3%, using Brandel cell harvester. Then the filter was washed with about 5 mL of 50 mmols/L of Tris-hydrochloric acid which had been cooled to 4° C. The filter was once again washed after similar operation.
Residual radioactivity on the filter was measured with liquid scintillation counter (Aloka Co., LSC-5100). Percent inhibition (%) of each test compound to binding of [^3H]8-OH-DPAT to 5-HT1A receptor at a concentration of 0.25 nmols/L, i.e., affinity of each test compound to 5-HT1A receptor, can be calculated according to the following expression. The ratio of non-specific binding was calculated by measuring the radioactivity in case of using 8-OH-DPAT at a concentration of 10 μmols/L, with which value the measured value of each test compound was compensated.
(§1) Affinity of each test compound to 5-HT1A receptor and 5-HT3 receptor at a concentration of 100 nmols/L were as shown in the following Tables A-1 and A-2. BRL-43694 and tropisetron (ICS 205-930), which were used in measuring affinity of those compounds to 5-HT3 receptor, have the following structures: […]

The target of another assay is T2, human 5-HT3 receptor (Homo sapiens, UniProt P46098).
T2 construct: purchased BIOLINKS K.K; host or cells: HEK-293 cells (membrane preparation)
T2 sequence (P46098 24-478): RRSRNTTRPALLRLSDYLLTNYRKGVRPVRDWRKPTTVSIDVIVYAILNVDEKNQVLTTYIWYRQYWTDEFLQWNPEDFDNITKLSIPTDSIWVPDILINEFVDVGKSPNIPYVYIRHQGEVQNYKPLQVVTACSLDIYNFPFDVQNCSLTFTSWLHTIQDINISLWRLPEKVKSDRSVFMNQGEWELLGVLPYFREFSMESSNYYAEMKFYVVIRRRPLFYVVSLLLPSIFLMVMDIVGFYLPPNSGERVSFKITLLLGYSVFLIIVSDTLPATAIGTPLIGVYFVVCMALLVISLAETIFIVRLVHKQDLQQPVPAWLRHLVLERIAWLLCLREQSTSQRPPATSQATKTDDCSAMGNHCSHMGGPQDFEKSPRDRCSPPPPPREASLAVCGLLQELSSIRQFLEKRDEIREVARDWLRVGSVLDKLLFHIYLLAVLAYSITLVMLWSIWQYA
Description: Measurement of affinity to human 5-HT3 receptor (in vitro), [3H]BRL-43694 binding. Conditions: test compound 100 nmols/L; [3H]BRL-43694 0.5 nmols/L; HEK-293 cell membrane expressing human 5-HT3 receptor; read-out: Percent Inhibition (%) on Each Receptor's Binding at 10^−7M, 5-HT3. As to the method: (2) Measurement of Affinity of Each Test Compound to Human 5-HT3 Receptor (in Vitro):
HEK-293 cell membrane sample in which human 5-HT3 receptor was expressed (purchased from BIOLINKS K.K.) 0.05 mL (about 50 microassay) was added to 24.95 mL of incubation buffer solution B (an aqueous solution of a mixture of 50 mmols/L of Tris-hydrochloric acid, 5 mmols/L of magnesium chloride and 1 mmol/L of EDTA, whose pH was adjusted to 7.5 at 25° C. with 1N-aqueous sodium hydroxide solution) and homogenized, to provide a membrane sample suspension B. Separately, each test compound was made into 270 μmols/L of DMSO solution and diluted to a prescribed concentration with the incubation buffer solution B to provide a compound solution.
A piece of polypropylene tube was charged with 20 μL of [^3H]BRL-43694 (purchased from Daiichi Pure Chemicals Co., Ltd.) (The concentration of [^3H]BRL-43694 had been advancedly adjusted to render its concentration in the reaction mixture to 0.5 nmols/L.) and 20 μL of one of the compound solutions. Further 500 μL of the membrane sample suspension B was added into the tube, followed by 60 minutes' incubation at 25° C. The reaction was terminated by rapid filtration of the reaction mixture through GF/B filter which had been advancedly immersed in a solution formed by adding to the incubation buffer solution B polyethyleneimine to a concentration of 0.5%, using Brandel cell harvester. Then the filter was washed with about 5 mL of 50 mmols/L of Tris-hydrochloric acid which had been cooled to 4° C. The filter was once again washed after similar operation.
Residual radioactivity on the filter was measured with liquid scintillation counter (ALOKA CO., LTD. LSC-5100). Percent inhibition (%) of each test compound to binding of [^3H]BRL-43694 to 5-HT3 receptor at a concentration of 0.5 nmols/L, i.e., affinity of each test compound to 5-HT3 receptor, can be calculated according to the following expression. The ratio of non-specific binding was calculated by measuring the radioactivity in case of using tropisetron: (ICS 205-930) at a concentration of 10 μmols/L, with which value the measured value of each test compound was compensated.
as §1

Turning to `c1cc2sccc2c(N2CCN3CCCCC3C2)n1` (stereo not drawn) [Production Example 121, 4-octahydropyrido[1,2-a]pyrazin-2-ylthieno[3,2-c]pyridine], the figures for the inhibition at 0.1 µM at human 5-HT1A receptor and at human 5-HT3 receptor were 69.3% and 85.6%, respectively.
As to `c1cc2sccc2c(N2CCN3CCC[C@@H]3C2)n1` [Production Example 109, 4-((8aR)-octahydropyrrolo[1,2-a]pyrazin-2-yl)thieno[3,2-c]pyridine], the results for the inhibition at 0.1 µM on human 5-HT1A receptor and at human 5-HT3 receptor were 75.4% and 92.5%, respectively.
Take `c1ccc(CO[C@@H]2C[C@H]3CN(c4nccc5ccsc45)CCN3C2)cc1` [Production Example 116, 7-((7R,8aS)-7-benzyloxyoctahydropyrrolo[1,2-a]pyrazin-2-yl)thieno-[2,3-c]pyridine]: the results for the inhibition at 0.1 µM at human 5-HT1A receptor and on human 5-HT3 receptor were 70.6% and 25.6%, respectively.
For `O=c1[nH]c(NCCCN2CCN(c3nc4ccccc4n4cccc34)CC2)nc2ccccc12` [Example 5-8, 2-[3-(4-pyrrolo[1,2-a]quinoxalin-4-ylpiperazin-1-yl)propylamino]-3H-quinazolin-4-one], the inhibition at 0.1 µM at human 5-HT1A receptor was 54.5%; at human 5-HT3 receptor it was 85.5%.
Taken in the same sequence, the figures for `Fc1ccc2ccnc(N3CCNCC3)c2c1` [Production Example 63, 7-fluoro-1-piperazin-1-ylisoquinoline] were 80.4% and 96.8%.
Turning to `Cn1c(CCCCN2CCN(c3ccc4ccccc4n3)CC2)nc2ccc(Br)cc2c1=O` [Example 7-26, 6-bromo-3-methyl-2-[4-(4-quinolin-2-ylpiperazin-1-yl)butyl]-3H-quinazolin-4-one], the inhibition at 0.1 µM at human 5-HT1A receptor was 85.2%; on human 5-HT3 receptor it was 71.6%.
Take `O=c1c2c(nc(CCCCN3CCN(c4ccc5ccccc5n4)CC3)n1Cc1ccccc1)CCCC2` [Example 7-4, 3-benzyl-2-[4-(4-quinolin-2-ylpiperazin-1-yl)butyl]-5,6,7,8-tetrahydro-3H-quinazolin-4-one]: the inhibition at 0.1 µM on human 5-HT1A receptor came out at 85%; at human 5-HT3 receptor, 61.2%.
The like results for `CN1CCN(c2nc(Cl)cc3ccccc23)CC1` [Production Example 16, 3-chloro-1-(4-methylpiperazin-1-yl)isoquinoline dihydrochloride] were, in that order, 61.1% and 99.2%.
The like results for `O[C@@H]1C[C@H]2CN(c3nccc4occc34)CCN2C1` [Production Example 114, 4-((7R,8aS)-7-hydroxyoctahydropyrrolo[1,2-a]pyrazin-2-yl)furo[3,2-c]-pyridine] were, in that order, 16.7% and 91%.
In the case of `CN1CCN(c2nccc3ccc(F)cc23)CC1` [Production Example 52, 7-fluoro-1-(4-methylpiperazin-1-yl)isoquinoline], the inhibition at 0.1 µM at human 5-HT1A receptor was 84.1%; at human 5-HT3 receptor it was 97%.
Take `O=c1[nH]c(NCCCN2CCN(c3ccc4ccccc4n3)CC2)nc2c1CCCC2` [Example 5-1, 2-[3-(4-quinolin-2-ylpiperazin-1-yl)propylamino]-5,6,7,8-tetrahydro-3H-quinazolin-4-one]: the results for the inhibition at 0.1 µM at human 5-HT1A receptor and on human 5-HT3 receptor were 74% and 94.8%, respectively.
Take `CCn1c(CCCCN2CCN(c3nc4ccccc4s3)CC2)nc2c(c1=O)CCCC2` [Example 7-10, 2-[4-(4-benzothiazol-2-ylpiperazin-1-yl)butyl]-3-ethyl-5,6,7,8-tetrahydro-3H-quinazolin-4-one]: the values for the inhibition at 0.1 µM at human 5-HT1A receptor and at human 5-HT3 receptor were 16.1% and 7.1%, respectively.
The like results for `Cn1c(NCCCN2CCN(c3ccc4ccccc4n3)CC2)nc2c(c1=O)CCCC2` [Example 7-29, 3-methyl-2-[3-(4-quinolin-2-ylpiperazin-1-yl)propylamino]-5,6,7,8-tetrahydro-3H-quinazolin-4-one] were, in that order, 80.8% and 93.6%.
For `COc1ccc2ccnc(N3CCN(Cc4ccc5c(c4)OCO5)CC3)c2c1` [Production Example 71, 1-(4-benzo[1,3]dioxol-5-ylmethylpiperazin-1-yl)-7-methoxyisoquinoline], the inhibition at 0.1 µM worked out at 94.8% at human 5-HT1A receptor and 42.2% at human 5-HT3 receptor.
As for `O=c1[nH]c(SCCCN2CCN(c3ccc4ccccc4n3)CC2)nc2ccsc12` [Example 2-12, 2-[3-(4-quinolin-2-ylpiperazin-1-yl)propylthio]-3H-thieno[3,2-d]-pyrimidin-4-one], the values for the inhibition at 0.1 µM on human 5-HT1A receptor and on human 5-HT3 receptor were 41.9% and 34.6%, respectively.
Taken in the same sequence, the figures for `Cc1sc2nc(CCCCN3CCN(c4ccc5ccccc5n4)CC3)[nH]c(=O)c2c1C` [Example 3-1, 5,6-dimethyl-2-[4-(4-quinolin-2-ylpiperazin-1-yl)butyl]-3H-thieno[2,3-d]pyrimidin-4-one] were 77% and 96.9%.
Taken in the same sequence, the figures for `Cc1ccc2c(=O)n(C)c(CCCCN3CCN(c4ccc5ccccc5n4)CC3)nc2c1` [Example 7-24, 3,7-dimethyl-2-[4-(4-quinolin-2-ylpiperazin-1-yl)butyl]-3H-quinazolin-4-one] were 78.3% and 30%.
The like results for `c1cc2ccoc2c(N2CCN3CCCCC3C2)n1` (stereo not drawn) [Production Example 118, 7-octahydropyrido[1,2-a]pyrazin-2-ylfuro[2,3-c]pyridine] were, in that order, 76% and 84.9%.
